Assay results published in EP4786454A1, “HETEROARYL DERIVATIVE AND USE THEREOF” (priority 2023, dated 2025).
pIC50: −log10 of the molar value. Where two headings read alike, the source gives them in different places.

Experiments:
Assay in all cases: Drug-drug interaction, CYP inhibition in human liver microsomes, cocktail method
Type in all cases: in vitro ADME
CYP2C9 = target: T1, CYP2C9 (Homo sapiens, UniProt P11712)
T1 construct: from tissue; host or cells: human liver microsomes
Description: (§1) The inhibitory effects of compounds on the activity of human liver microsomal cytochrome P450 isoenzymes (CYP1A2, CYP2C9, CYP2C19, CYP2D6, and CYP3A) were evaluated using a cocktail method with specific probe substrates for CYP1A2, CYP2C9, CYP2C19, CYP2D6, and CYP3A.
(§2) Human liver microsomes, probe substrates, positive control inhibitor, and reduced nicotinamide adenine dinucleotide phosphate.
(§3) 20 µL of a substrate solution was added to the corresponding well of a reaction plate, and 20 µL of potassium phosphate buffer was added to the blank wells.
(§4) 2 µL of a test compound working solution and positive control working solution were added to the corresponding wells, and 2 µL of solvent was added to the inhibitor-free wells and blank wells.
(§5) Human liver microsomal working solution was prepared, and 158 µL of human liver microsomal working solution was added to each well of the reaction plate.
(§6) The reaction plate was preheated at 37.0 °C for 10 minutes.
(§7) 20 µL of NADPH cofactor working solution was added to the reaction plate to initiate the reaction.
(§8) The mixture was mixed and incubated in a 37.0 °C water bath for 10 minutes, and 400 µL of stop solution was added to the reaction plate to terminate the reaction.
(§9) The sample plate was placed in a centrifuge, and centrifuged at 4000 rpm for 20 minutes.
(§10) 200 µL of supernatant was taken out, and appropriate 100 µL of pure water was added for dilution. The plate was shaken until the mixture was mixed well.
(§11) The analysis was performed using liquid chromatography-tandem mass spectrometry (LC-MS/MS).
(§12) The IC50 values of the assay samples were calculated by performing a three-parameter or four-parameter nonlinear regression analysis using XL fit software, with the remaining percentage of activity as the ordinate and the assay sample concentration as the abscissa. When the IC50 obtained by fitting with XL fit software was greater than the maximum administration concentration (50.0 µM) or IC50 could not be obtained by fitting, the IC50 value was marked as ">50.0 µM".
(§13) Three-parameter equation: y = (max)/(1 + (((x)/(IC50)))^−hillslope) [formula]
(§14) Four-parameter equation: y = min + (max−min)/(1 + (((x)/(IC50)))^−hillslope) [formula] max: maximum enzyme activity; min: minimum enzyme activity; x: concentration of the assay sample or positive control inhibitor; y: enzyme activity at the corresponding concentration; hillslope: slope; IC50: half-maximal inhibitory concentration; the four-parameter equation was used when the minimum enzyme activity was within ±10%, otherwise the three-parameter equation was used. Drug-drug interaction assay results of the compounds of the present disclosure

CYP2C19 = target: T2, CYP2C19 (Homo sapiens, UniProt P33261)
T2 construct: from tissue; host or cells: human liver microsomes
T2 sequence (P33261 whole entry): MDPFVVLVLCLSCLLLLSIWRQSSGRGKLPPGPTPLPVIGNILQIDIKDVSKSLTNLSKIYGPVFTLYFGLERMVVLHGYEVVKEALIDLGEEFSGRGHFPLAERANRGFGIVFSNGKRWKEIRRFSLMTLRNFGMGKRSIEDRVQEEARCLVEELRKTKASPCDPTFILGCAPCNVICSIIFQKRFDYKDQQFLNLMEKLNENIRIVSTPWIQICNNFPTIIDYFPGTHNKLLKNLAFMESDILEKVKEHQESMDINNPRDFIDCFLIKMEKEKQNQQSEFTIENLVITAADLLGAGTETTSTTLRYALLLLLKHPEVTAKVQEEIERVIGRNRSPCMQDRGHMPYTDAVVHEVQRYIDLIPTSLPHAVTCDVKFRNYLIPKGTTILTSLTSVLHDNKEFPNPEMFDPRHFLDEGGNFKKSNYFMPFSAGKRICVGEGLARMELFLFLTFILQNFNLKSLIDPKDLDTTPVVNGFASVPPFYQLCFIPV
Description: as §1, §2, §3, §4, §5, §6, §7, §8, §9, §10, §11, §12, §13, §14

CYP3A4 = CYP3A4 (Homo sapiens, UniProt P08684)
Sequence of CYP3A4 (P08684 2-503): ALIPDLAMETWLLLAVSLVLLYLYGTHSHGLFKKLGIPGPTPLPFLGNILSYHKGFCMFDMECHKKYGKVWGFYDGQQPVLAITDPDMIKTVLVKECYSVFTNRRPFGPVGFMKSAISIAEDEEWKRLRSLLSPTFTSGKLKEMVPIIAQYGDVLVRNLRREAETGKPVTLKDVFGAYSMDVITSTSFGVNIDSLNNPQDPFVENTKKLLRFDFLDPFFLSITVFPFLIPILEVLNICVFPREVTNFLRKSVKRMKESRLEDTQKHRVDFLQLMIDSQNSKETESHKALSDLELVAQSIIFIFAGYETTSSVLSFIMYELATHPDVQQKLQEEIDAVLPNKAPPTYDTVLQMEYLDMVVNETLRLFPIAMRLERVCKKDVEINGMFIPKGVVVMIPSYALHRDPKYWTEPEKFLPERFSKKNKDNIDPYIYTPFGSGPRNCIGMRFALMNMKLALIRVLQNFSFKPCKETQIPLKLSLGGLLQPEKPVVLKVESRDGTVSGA
Description: as §1, §2, §3, §4, §5, §6, §7, §8, §9, §10, §11, §12, §13, §14

CYP1A2 = target: T3, CYP1A2 (Homo sapiens, UniProt P05177)
T3 construct: from tissue; host or cells: human liver microsomes
T3 sequence (P05177 1-516): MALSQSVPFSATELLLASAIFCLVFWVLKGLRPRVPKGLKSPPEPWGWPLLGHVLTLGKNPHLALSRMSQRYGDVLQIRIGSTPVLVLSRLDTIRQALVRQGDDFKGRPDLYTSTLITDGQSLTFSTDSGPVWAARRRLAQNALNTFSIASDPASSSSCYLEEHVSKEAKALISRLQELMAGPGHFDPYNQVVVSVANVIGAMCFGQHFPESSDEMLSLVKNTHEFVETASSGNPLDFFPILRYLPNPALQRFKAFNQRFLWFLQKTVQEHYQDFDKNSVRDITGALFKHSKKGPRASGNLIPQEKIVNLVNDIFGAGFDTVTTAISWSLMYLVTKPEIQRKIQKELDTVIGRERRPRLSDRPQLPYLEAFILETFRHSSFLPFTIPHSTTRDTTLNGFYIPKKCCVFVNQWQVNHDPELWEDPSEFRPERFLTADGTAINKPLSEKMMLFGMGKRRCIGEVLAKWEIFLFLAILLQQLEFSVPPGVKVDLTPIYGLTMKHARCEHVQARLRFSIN
Description: as §1, §2, §3, §4, §5, §6, §7, §8, §9, §10, §11, §12, §13, §14

CYP2D6 = target: T4, CYP2D6 (Homo sapiens, UniProt P10635)
T4 construct: from tissue; host or cells: human liver microsomes
T4 sequence (P10635 whole entry): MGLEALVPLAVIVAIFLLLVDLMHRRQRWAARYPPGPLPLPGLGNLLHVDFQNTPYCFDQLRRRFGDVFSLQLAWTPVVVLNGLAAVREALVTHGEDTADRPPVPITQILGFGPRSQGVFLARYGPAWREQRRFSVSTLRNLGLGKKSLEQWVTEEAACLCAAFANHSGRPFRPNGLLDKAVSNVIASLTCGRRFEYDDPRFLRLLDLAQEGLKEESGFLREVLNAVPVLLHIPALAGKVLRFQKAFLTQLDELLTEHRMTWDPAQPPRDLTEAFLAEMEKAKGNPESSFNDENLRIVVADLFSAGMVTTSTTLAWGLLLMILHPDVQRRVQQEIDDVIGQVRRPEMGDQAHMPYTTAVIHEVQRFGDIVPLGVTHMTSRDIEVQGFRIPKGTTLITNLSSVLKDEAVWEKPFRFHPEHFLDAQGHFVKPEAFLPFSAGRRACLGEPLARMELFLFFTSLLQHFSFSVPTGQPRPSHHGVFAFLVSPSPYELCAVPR
Description: as §1, §2, §3, §4, §5, §6, §7, §8, §9, §10, §11, §12, §13, §14

[1] = human liver microsomes, maximum concentration 50.0 µM, read-out: CYP 2C9 (IC50)
[2] = human liver microsomes, maximum concentration 50.0 µM, read-out: CYP 2C19 (IC50)
[3] = human liver microsomes, maximum concentration 50.0 µM, read-out: CYP 3A4 (IC50)
[4] = human liver microsomes, maximum concentration 50.0 µM, read-out: CYP 1A2 (IC50)
[5] = human liver microsomes, maximum concentration 50.0 µM, read-out: CYP 2D6 (IC50)

T1 sequence (P11712 whole entry): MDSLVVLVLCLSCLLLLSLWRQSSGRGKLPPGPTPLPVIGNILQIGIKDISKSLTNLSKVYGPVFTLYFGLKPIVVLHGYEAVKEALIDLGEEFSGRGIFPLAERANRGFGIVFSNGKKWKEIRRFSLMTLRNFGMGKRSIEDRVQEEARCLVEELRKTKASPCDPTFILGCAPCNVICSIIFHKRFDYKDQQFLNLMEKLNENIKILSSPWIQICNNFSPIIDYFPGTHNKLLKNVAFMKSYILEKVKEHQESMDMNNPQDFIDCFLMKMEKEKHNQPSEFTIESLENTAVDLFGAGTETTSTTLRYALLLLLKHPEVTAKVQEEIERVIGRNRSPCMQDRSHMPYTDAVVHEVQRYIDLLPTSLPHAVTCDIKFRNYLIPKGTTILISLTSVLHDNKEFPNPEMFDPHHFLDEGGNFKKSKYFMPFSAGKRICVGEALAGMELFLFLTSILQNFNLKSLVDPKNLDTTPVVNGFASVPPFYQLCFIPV

Structure (SMILES)	pIC50 (CYP2C9; [1])	pIC50 (CYP2C19; [2])	IC50 at 10 min (CYP3A4; [3])	pIC50 (CYP1A2; [4])	pIC50 (CYP2D6; [5])	pIC50 (CYP2C9)	pIC50 (CYP2C19)	IC50 at 10 min (CYP3A4; human, microsomes)	pIC50 (CYP1A2)	pIC50 (CYP2D6)
CC(C)(C)CC(=O)Nc1nc2c(F)cc(C#N)cn2c1C1=CCCC1 [Compound 3]	< 4.30	< 4.30	> 50 µM	< 4.30	< 4.30	–	–	–	–	–
CC(C)(C)CC(=O)Nc1nc2c(F)cc(C#N)cn2c1-c1ccc(OC(F)(F)F)cc1 [Compound 1]	–	–	–	–	–	4.34	4.51	14 µM	< 4.30	4.38
CC(C)(C)CC(=O)Nc1nc2c(F)cc(C#N)cn2c1C12CC(C1)C2 [Compound 5]	< 4.30	< 4.30	> 50 µM	< 4.30	< 4.30	–	–	–	–	–
CC(C)(C)CC(=O)Nc1nc2c(C(F)(F)F)cc(C#N)cn2c1C12CC(C1)C2 [Compound 6]	< 4.30	< 4.30	> 50 µM	< 4.30	< 4.30	–	–	–	–	–
